Laboratory results: patent US20250351832A1, “PHYTOCHEMICALS AS BIOPESTICIDES AND BIOSTIMULANTS” (KAY BEE BIO ORGANICS PVT. LTD., priority 2024, published 2025)
Where two headings read alike, the source gives them in different places.

How the values were obtained:
Alternaria alternata [1] = assay: In vitro poisoned food technique against fungus (Ex. 20); assay type: cell-based; conditions: poisoned food technique, PDA medium, dose 1 ml/gm/lit., after seven days
Alternaria alternata [2] = assay: Alternaria leaf spot/blight on inoculated tomato plants (Ex. 28); assay type: in vivo; conditions: tomato plants, Alternaria alternata; after 7 days; dose 1 ml/gm/lit
tomato seedlings = assay: Response of tomato plants, greenhouse growth (Ex. 30); assay type: in vivo; conditions: tomato seedlings, dose 1 ml/gm/lit
chili seedlings = assay: Response of chili plants, greenhouse growth (Ex. 31); assay type: in vivo; conditions: chili seedlings, dose 1 ml/gm/lit
Aphid [3] = conditions: Dose 1 ml/gm/lit.
Mite [4] = conditions: Dose 1 ml/gm/lit.
Mealy Bug [5] = conditions: Mealy Bug on cotton leaves, dose 1 ml/gm/lit., 48 Hrs.
Helicoverpa armigera [6] = conditions: Helicoverpa armigera on okra fruits, dose 1 ml/gm/lit., 72 Hrs.
Spodoptera litura [7] = conditions: Spodoptera litura on castor leaves; dose 1 ml/gm/lit.; 10 insects/treatment; 72 hrs after application
Thrips [8] = conditions: Thrips on cotton leaves; dose 1 ml/gm/lit.; 10 insects/treatment; 48 hrs after application
Aphid [9] = conditions: Aphids on cotton plants, green house; dose 1 ml/gm/lit.; 10 insects/plant, 10 plants/treatment; 48 hrs
Mite [10] = conditions: mite on okra plants, green house, dose 1 ml/gm/lit. spray
Mealy Bug [11] = conditions: mealy bug on cotton plants, green house, dose 1 ml/gm/lit. spray
Helicoverpa armigera [12] = conditions: Helicoverpa armigera 3rd instar on chickpea plants, dose 1 ml/gm/lit. spray
Spodoptera litura [13] = conditions: Spodoptera litura 3rd instar on cabbage plants, dose 1 ml/gm/lit. spray
Thrips [14] = conditions: thrips on cotton plants, greenhouse, dose 1 ml/gm/lit. spray
[15] = cited from earlier work
Spodoptera litura [16] = assay: whole plant or invertebrate; conditions: 72 h
Thrips [17] = assay: whole plant or invertebrate; conditions: in Gossypium hirsutum, 48 h
Aphid [18] = assay: whole plant or invertebrate; conditions: 48 h
[19] = 10 insects/treatment, 4 replications
[20] = 48 hrs, corrected for water control
[21] = 72 hrs, corrected for water control
[22] = Table 13, descriptive, no test described
[23] = read-out: % Corrected Mortality at 48 Hrs.
[24] = read-out: % Mortality at 48 Hrs.

O=c1oc2c(O)c(O)cc3c(=O)oc4c(O)c(O)cc1c4c23 [Ellagic acid]
Mean colony Diameter (mm) (Alternaria alternata [1]): 44.00 mm
inhibition of growth at 1 mL or g/L (Alternaria alternata [1]; vs untreated control, read-out: % Inhibition of growth): 50%
% Disease reduction over Control (Alternaria alternata [2]): 66.12%
Plant Height 5th Day (tomato seedlings; 5th day after application): 7.09 cm
Stem Girth 5th Day (tomato seedlings; 5th day after application): 1.54 mm
Plant Height 10th Day (tomato seedlings; 10th day after application): 8.18 cm
Stem Girth 10th Day (tomato seedlings; 10th day after application): 2.19 mm
Plant Height % Increase over pre on 10th Day (tomato seedlings; 10th day): 36.11%
Stem Girth % Increase over pre on 10th Day (tomato seedlings; 10th day): 62.87%
CCI 5th Day (tomato seedlings; 5th day after application): 13.39
CCI % Increase over pre on 10th Day (tomato seedlings; 10th day): 28.96%
Root Length (cm) 10th Day (tomato seedlings; 10th day): 4.48 cm
CCI 10th Day (tomato seedlings; 10th day after application): 14.56
Root Length % Increase over control (tomato seedlings; 10th day, vs water control): 34.64%
CCI 5th Day (chili seedlings; 5th day after application): 16.35
Plant Height (cm) 5th Day (chili seedlings; 5th day after application): 5.77 cm
CCI % Increase over pre on 10th Day (chili seedlings; 10th day): 67.49%
Plant Height % Increase over pre on 10th Day (chili seedlings; 10th day): 62.60%
Root Lenght (cm) 10th Day (chili seedlings; 10th day): 3.92 cm
Stem Girth % Increase over pre on 10th Day (chili seedlings; 10th day): 51.20%
CCI 10th Day (chili seedlings; 10th day after application): 16.95
Plant Height (cm) 10th Day (chili seedlings; 10th day after application): 6 cm
Root Lenght % Increase over control (chili seedlings; 10th day, vs water control): 43.41%
Total No. of dead insect at 48 Hrs. (Aphid [3]; 10 insects/treatment, 4 replications, cotton leaves): 7.25
% Corrected Mortality at 48 Hrs. (Aphid [3]; 48 hrs): 68.57%
% Mortality at 48 Hrs. (Aphid [3]; 48 hrs): 72.50%
Total No. of dead insect at 48 Hrs. (Mite [4]; 10 insects/treatment, 4 replications, okra leaves): 5.00
% Corrected Mortality at 48 Hrs. (Mite [4]; 48 hrs): 45.95%
Total No. of dead insect at 48 Hrs. (Mealy Bug [5]; [19]): 6.00
% Mortality at 48 Hrs. (Mealy Bug [5]): 60.00%
% Corrected Mortality at 48 Hrs. (Mealy Bug [5]; corrected for water control): 57.89%
Total No. of dead insect at 72 Hrs. (Helicoverpa armigera [6]; [19]): 7.25
% Mortality at 72 Hrs. (Helicoverpa armigera [6]): 72.50%
% Corrected Mortality at 72 Hrs. (Helicoverpa armigera [6]; corrected for water control): 72.50%
Total No. of dead insect at 72 Hrs. (Spodoptera litura [7]): 6.00
Total No. of dead insect at 48 Hrs. (Thrips [8]): 3.50
Total No. of dead insect at 48 Hrs. (Aphid [9]): 75.00
% Mortality at 48 Hrs. (Mite [10]; 48 hrs after application): 52.50%
Total No. of dead insect at 48 Hrs. (Mite [10]; 48 hrs after application): 52.50
% Corrected Mortality at 48 Hrs. (Mite [10]; [20]): 50.00%
% Mortality at 48 Hrs. (Mealy Bug [11]; 48 hrs after application): 57.50%
Total No. of dead insect at 48 Hrs. (Mealy Bug [11]; 48 hrs after application): 57.50
% Corrected Mortality at 48 Hrs. (Mealy Bug [11]; [20]): 52.78%
% Mortality at 72 Hrs. (Helicoverpa armigera [12]; 72 hrs after application): 70.00%
% Corrected Mortality at 72 Hrs. (Helicoverpa armigera [12]; [21]): 70.00%
% Mortality at 72 Hrs. (Spodoptera litura [13]; 72 hrs after application): 55.00%
% Corrected Mortality at 72 Hrs. (Spodoptera litura [13]; [21]): 52.63%
% Mortality at 48 Hrs. (Thrips [14]; 48 hrs after application): 32.50%
Total No. of dead insect at 48 Hrs. (Thrips [14]; 48 hrs after application): 32.50
% Corrected Mortality at 48 Hrs. (Thrips [14]; [20]): 25.00%
Acaricidal Activity - Mode of action [15, 22]: Shows acaricidal activities
Antifungal Activity - Mode of action [15, 22]: Fungicidal activities
Antioxidant Activity - Mode of action [15, 22]: Exhibit antioxidant
Bactericidal Activity - Mode of action [15, 22]: Exhibits bactericidal
Insecticidal Activities - Mode of action [15, 22]: Inhibit the growth, food
Phytotonic Effect ([15]; Table 13, effect on plants, descriptive): Reduces plant
mortality at 1 mL or g/L (Spodoptera litura [16]; read-out: % Corrected Mortality at 72 Hrs.): 57.9%
mortality at 1 mL or g/L (Spodoptera litura [16]; read-out: % Mortality at 72 Hrs.): 60%
mortality at 1 mL or g/L (Thrips [17]; [23]): 25.7%
mortality at 1 mL or g/L (Thrips [17]; [24]): 35%
mortality at 1 mL or g/L (Aphid [18]; [23]): 70.6%
mortality at 1 mL or g/L (Aphid [18]; [24]): 75%
